Experimental data: PubChem BioAssay AID330 (DTP/NCI, 2004)
Where “and” joins values, the source holds several entries; their conditions need not be identical. Equal values may be shown once. Inconclusive results and toxic doses are left out.

System: P388 leukemia ip, CD2F1 mice, survival T/C
Assay: NCI In Vivo Anticancer Drug Screen. Data for tumor model P388 Leukemia (intraperitoneal) in CD2F1 (CDF1) mice
Conditions: endpoint: median survival time, higher = longer survival
Method in brief: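 Mice carrying the transplanted tumor received test compound or vehicle. Survival was recorded in each group, and the value is the treated-group measurement divided by that of the vehicle-treated control group.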

[1] = dose: 12.5 mg/kg/injection, schedule: Q01DX009 (ip), vehicle: saline with Tween-80
[2] = dose: 25.0 mg/kg/injection, schedule: Q01DX009 (ip), vehicle: saline with Tween-80
[3] = dose: 50.0 mg/kg/injection, schedule: Q01DX009 (ip), vehicle: saline with Tween-80
[4] = dose: 120.0 mg/kg/injection, schedule: Q01DX005 (ip), vehicle: Klucel (hydroxypropylcellulose) (HPC)
[5] = dose: 25.0 mg/kg/injection, schedule: Q01DX009 (ip), vehicle: Klucel (hydroxypropylcellulose) (HPC)
[6] = dose: 100.0 mg/kg/injection, schedule: Q01DX009 (ip), vehicle: saline with Tween-80
[7] = dose: 200.0 mg/kg/injection, schedule: Q01DX009 (ip), vehicle: saline with Tween-80
[8] = dose: 100.0 mg/kg/injection, schedule: Q01DX001 (ip), vehicle: saline with Tween-80
[9] = dose: 200.0 mg/kg/injection, schedule: Q01DX001 (ip), vehicle: saline with Tween-80
[10] = dose: 400.0 mg/kg/injection, schedule: Q01DX001 (ip), vehicle: saline with Tween-80
[11] = dose: 50.0 mg/kg/injection, schedule: Q01DX005 (ip), vehicle: saline with Tween-80
[12] = dose: 100.0 mg/kg/injection, schedule: Q01DX005 (ip), vehicle: saline with Tween-80
[13] = dose: 200.0 mg/kg/injection, schedule: Q01DX005 (ip), vehicle: saline with Tween-80

## O=C(c1cc(-c2ccccc2)nc2ccccc12)n1c(=O)oc(=O)c2cc([N+](=O)[O-])ccc21
dose: 50.0 mg/kg/injection, schedule: Q01DX005 (ip), vehicle: saline
  T/C: 97 % of control
dose: 100.0 mg/kg/injection, schedule: Q01DX005 (ip), vehicle: saline
  T/C: 101 % of control
dose: 200.0 mg/kg/injection, schedule: Q01DX005 (ip), vehicle: saline
  T/C: 99 % of control

## CCCCCCCCCCCCN(C)C
[1]
  T/C: 100 % of control
[2]
  T/C: 100 % of control
[3]
  T/C: 100 % of control

## CCN(CC)CCCC(C)Nc1c2ccc(C)cc2nc2ccc(OC)cc12 (stereo unspecified)
[1]
  T/C: 103 % of control
[3]
  T/C: 112 % of control

## COCC1(C)CCCC2(C)C1CCC13CCC(O)CC12O3 (stereo unspecified)
dose: 100.0 mg/kg/injection, schedule: Q01DX001 (ip), vehicle: saline
  T/C: 105 % of control
dose: 200.0 mg/kg/injection, schedule: Q01DX001 (ip), vehicle: saline
  T/C: 105 % of control
dose: 400.0 mg/kg/injection, schedule: Q01DX001 (ip), vehicle: saline
  T/C: 103 % of control

## Oc1cc2c(cc1C(c1ccc(F)cc1)n1ccnc1)OCO2 (stereo unspecified)
dose: 60.0 mg/kg/injection, schedule: Q01DX005 (ip), vehicle: Klucel (hydroxypropylcellulose) (HPC)
  T/C: 96 % of control
[4]
  T/C: 94 % of control
dose: 240.0 mg/kg/injection, schedule: Q01DX005 (ip), vehicle: Klucel (hydroxypropylcellulose) (HPC)
  T/C: 91 % of control

## O=C(/C=C1\Nc2ccccc2N(C(=O)c2ccccc2)C1c1ccccc1)c1ccccc1 (stereo unspecified)
dose: 7.5 mg/kg/injection, schedule: Q01DX005 (ip), vehicle: Klucel (hydroxypropylcellulose) (HPC)
  T/C: 103 % of control
dose: 15.0 mg/kg/injection, schedule: Q01DX005 (ip), vehicle: Klucel (hydroxypropylcellulose) (HPC)
  T/C: 88 % of control
dose: 30.0 mg/kg/injection, schedule: Q01DX005 (ip), vehicle: Klucel (hydroxypropylcellulose) (HPC)
  T/C: 88 % of control and 91 % of control
[4]
  T/C: 88 % of control

## c1ccc(NSc2ccccc2)cc1
[5]
  T/C: 119 % of control
[2]
  T/C: 100 % of control
dose: 50.0 mg/kg/injection, schedule: Q01DX009 (ip), vehicle: Klucel (hydroxypropylcellulose) (HPC)
  T/C: 103 % of control and 119 % of control
[3]
  T/C: 98 % of control
dose: 100.0 mg/kg/injection, schedule: Q01DX009 (ip), vehicle: Klucel (hydroxypropylcellulose) (HPC)
  T/C: 101 % of control and 121 % of control
[6]
  T/C: 109 % of control
dose: 200.0 mg/kg/injection, schedule: Q01DX009 (ip), vehicle: Klucel (hydroxypropylcellulose) (HPC)
  T/C: 106 % of control
[7]
  T/C: 100 % of control

## Oc1ccccc1N=Nc1ccccc1O.[O]=[V]
dose: 3.13 mg/kg/injection, schedule: Q01DX009 (ip), vehicle: Klucel (hydroxypropylcellulose) (HPC)
  T/C: 99 % of control
dose: 6.25 mg/kg/injection, schedule: Q01DX009 (ip), vehicle: Klucel (hydroxypropylcellulose) (HPC)
  T/C: 107 % of control and 112 % of control
dose: 12.5 mg/kg/injection, schedule: Q01DX009 (ip), vehicle: Klucel (hydroxypropylcellulose) (HPC)
  T/C: 100 % of control and 106 % of control
[5]
  T/C: 90 % of control

## CCOC(=O)C1(c2ccccc2)CCCN(C)CC1 (stereo unspecified)
dose: 25.0 mg/kg/injection, schedule: Q04DX003 (ip), vehicle: saline
  T/C: 107 % of control
dose: 50.0 mg/kg/injection, schedule: Q04DX003 (ip), vehicle: saline
  T/C: 107 % of control
dose: 100.0 mg/kg/injection, schedule: Q04DX003 (ip), vehicle: saline
  T/C: 98 % of control

## COC1NC(=O)NC(=O)C1=[N+]=[N-] (stereo unspecified)
dose: 2.5 mg/kg/injection, schedule: Q01DX009 (ip), vehicle: saline
  T/C: 168 % of control
dose: 5.0 mg/kg/injection, schedule: Q01DX009 (ip), vehicle: saline sonified
  T/C: 163 % of control
dose: 5.0 mg/kg/injection, schedule: Q01DX009 (ip), vehicle: saline with Tween-80
  T/C: 154 % of control
dose: 7.5 mg/kg/injection, schedule: Q01DX009 (ip), vehicle: saline with Tween-80
  T/C: 191 % of control
dose: 10.0 mg/kg/injection, schedule: Q01DX009 (ip), vehicle: saline sonified
  T/C: 159 % of control
dose: 75.0 micrograms/kg/injection, schedule: Q01DX009 (ip), vehicle: saline
  T/C: 109 % of control
dose: 150.0 micrograms/kg/injection, schedule: Q01DX009 (ip), vehicle: saline
  T/C: 113 % of control

## CCOC(=O)N1C(=O)c2ccccc2C1=O
[2]
  T/C: 110 % of control
dose: 25.0 mg/kg/injection, schedule: Q04DX003 (ip), vehicle: saline with Tween-80
  T/C: 115 % of control
[3]
  T/C: 105 % of control
dose: 50.0 mg/kg/injection, schedule: Q04DX003 (ip), vehicle: saline with Tween-80
  T/C: 110 % of control
[6]
  T/C: 100 % of control
dose: 100.0 mg/kg/injection, schedule: Q04DX003 (ip), vehicle: saline with Tween-80
  T/C: 120 % of control

## CC(=O)Oc1ccccc1C(=O)OC1CC(C)CCC1C(C)C (stereo unspecified)
dose: 12.5 mg/kg/injection, schedule: Q01DX005 (ip), vehicle: Klucel (hydroxypropylcellulose) (HPC)
  T/C: 99 % of control
dose: 25.0 mg/kg/injection, schedule: Q01DX005 (ip), vehicle: Klucel (hydroxypropylcellulose) (HPC)
  T/C: 106 % of control
dose: 50.0 mg/kg/injection, schedule: Q01DX005 (ip), vehicle: Klucel (hydroxypropylcellulose) (HPC)
  T/C: 88 % of control and 94 % of control
dose: 200.0 mg/kg/injection, schedule: Q01DX005 (ip), vehicle: Klucel (hydroxypropylcellulose) (HPC)
  T/C: 103 % of control

## c1ccc2c3c(ccc2c1)OCCOCCOCCOc1ccc2ccccc2c1-3
[8]
  T/C: 98 % of control
[9]
  T/C: 92 % of control
[10]
  T/C: 87 % of control

## COC(=O)C1CCC(c2ccccc2)(c2ccccc2)C1O.COC(=O)C1CCC(c2ccccc2)(c2ccccc2)C1O.[Cu] (stereo unspecified)
dose: 100.0 mg/kg/injection, schedule: Q01DX001 (ip), vehicle: Klucel (hydroxypropylcellulose) (HPC)
  T/C: 100 % of control
dose: 200.0 mg/kg/injection, schedule: Q01DX001 (ip), vehicle: Klucel (hydroxypropylcellulose) (HPC)
  T/C: 100 % of control
dose: 400.0 mg/kg/injection, schedule: Q01DX001 (ip), vehicle: Klucel (hydroxypropylcellulose) (HPC)
  T/C: 100 % of control

## COc1ccc(S(=O)(=O)N/N=C\c2cc([N+](=O)[O-])ccc2O)cc1OC
[11]
  T/C: 109 % of control
[12]
  T/C: 109 % of control
[13]
  T/C: 100 % of control

## COc1cc2cc(-c3ccc4c(c3)OCO4)[n+](C)cc2cc1OC
dose: 6.25 mg/kg/injection, schedule: Q01DX001 (ip), vehicle: Klucel (hydroxypropylcellulose) (HPC)
  T/C: 100 % of control
dose: 12.5 mg/kg/injection, schedule: Q01DX001 (ip), vehicle: Klucel (hydroxypropylcellulose) (HPC)
  T/C: 107 % of control
dose: 25.0 mg/kg/injection, schedule: Q01DX001 (ip), vehicle: Klucel (hydroxypropylcellulose) (HPC)
  T/C: 110 % of control
dose: 50.0 mg/kg/injection, schedule: Q01DX001 (ip), vehicle: Klucel (hydroxypropylcellulose) (HPC)
  T/C: 96 % of control

## CCOC(=O)C(Cc1ccc(O)cc1)NC(=O)C(CCCCN)N(C(=O)OCc1ccccc1)C(=O)OCc1ccccc1 (stereo unspecified)
[11]
  T/C: 96 % of control
[12]
  T/C: 94 % of control
[13]
  T/C: 92 % of control

## O=C(CCl)N1CC2CCC(CC2)C1
[3]
  T/C: 102 % of control
[6]
  T/C: 91 % of control

## N#C/C(N)=C(\C#N)N=Cc1ccc(-c2ccccc2)cc1
[8]
  T/C: 90 % of control
[9]
  T/C: 90 % of control
[10]
  T/C: 86 % of control

## O=C(CCN1CCCCC1)Nc1ccc(F)cc1F
[11]
  T/C: 97 % of control
[12]
  T/C: 99 % of control
[13]
  T/C: 100 % of control

## N#CN(Cc1ccccc1)Cc1ccccc1.[Br][Sn]([c]1ccccc1)([c]1ccccc1)[c]1ccccc1
dose: 3.12 mg/kg/injection, schedule: Q01DX005 (ip), vehicle: saline with Tween-80
  T/C: 100 % of control
dose: 6.25 mg/kg/injection, schedule: Q01DX005 (ip), vehicle: saline with Tween-80
  T/C: 100 % of control
dose: 12.5 mg/kg/injection, schedule: Q01DX005 (ip), vehicle: saline with Tween-80
  T/C: 91 % of control
[11]
  T/C: 114 % of control

## O=[N+]([O-])c1ccccc1OCC(O)CCl (stereo unspecified)
[3]
  T/C: 102 % of control
[6]
  T/C: 99 % of control

## CCOC(=O)N1CCN(CCCCCCOc2ccc(C3CCCCC3)cc2)CC1
[3]
  T/C: 106 % of control
[6]
  T/C: 118 % of control
[7]
  T/C: 123 % of control

## O=C(NCCCl)OCC(Cl)(Cl)Cl
[3]
  T/C: 91 % of control
[6]
  T/C: 100 % of control
[7]
  T/C: 98 % of control
